From the NIST ThermoML archive (doi:10.1021/je101178u)
Values joined by “and” are separate entries in the source; they are usually repeats but may differ in a detail not shown here. Equal values may be shown once. Numbers after ± are expanded uncertainties.

Details: 307.15 K, Fluid (supercritical or subcritical phases); for mass density: Buoyancy - hydrostatic balance with magnetic suspension - one sinker; for viscosity: vibrating wire

## CC [ethane]
2134.4 kPa
  mass density: 30.049 ± 0.067 kg/m3
  viscosity: 0.01007 ± 6e-05 mPa·s
2134.5 kPa
  mass density: 30.051 ± 0.067 kg/m3
  viscosity: 0.01006 ± 6e-05 mPa·s
2653.6 kPa
  mass density: 39.629 ± 0.085 kg/m3
  viscosity: 0.01038 ± 6.2e-05 mPa·s
2653.7 kPa
  mass density: 39.631 ± 0.085 kg/m3
  viscosity: 0.01038 ± 6.2e-05 mPa·s
2674.2 kPa
  mass density: 40.039 ± 0.096 kg/m3 and 40.038 ± 0.096 kg/m3
  viscosity: 0.01034 ± 6.2e-05 mPa·s
2674.3 kPa
  mass density: 40.04 ± 0.096 kg/m3
  viscosity: 0.01034 ± 6.2e-05 mPa·s
3138.1 kPa
  mass density: 50.006 ± 0.13 kg/m3
  viscosity: 0.01066 ± 6.5e-05 mPa·s
3138.2 kPa
  mass density: 50.008 ± 0.13 kg/m3
  viscosity: 0.01066 ± 6.5e-05 mPa·s
3138.4 kPa
  mass density: 50.012 ± 0.13 kg/m3
  viscosity: 0.01066 ± 6.5e-05 mPa·s
3539.6 kPa
  mass density: 60.147 ± 0.18 kg/m3
  viscosity: 0.01103 ± 7e-05 mPa·s
3539.8 kPa
  mass density: 60.154 ± 0.18 kg/m3
  viscosity: 0.01103 ± 7e-05 mPa·s
3815.6 kPa
  mass density: 68.316 ± 0.15 kg/m3
  viscosity: 0.01142 ± 6.9e-05 mPa·s
3821.7 kPa
  mass density: 68.511 ± 0.15 kg/m3
  viscosity: 0.01143 ± 6.9e-05 mPa·s
3889 kPa
  mass density: 70.711 ± 0.25 kg/m3
  viscosity: 0.01145 ± 8e-05 mPa·s
3892.4 kPa
  mass density: 70.823 ± 0.25 kg/m3
  viscosity: 0.01146 ± 8e-05 mPa·s
4150.5 kPa
  mass density: 80.267 ± 0.33 kg/m3
  viscosity: 0.01188 ± 9.7e-05 mPa·s
4151.6 kPa
  mass density: 80.309 ± 0.33 kg/m3
  viscosity: 0.01189 ± 9.8e-05 mPa·s
4152 kPa
  mass density: 80.328 ± 0.33 kg/m3
  viscosity: 0.01189 ± 9.8e-05 mPa·s
4152.4 kPa
  mass density: 80.342 ± 0.33 kg/m3
  viscosity: 0.01189 ± 9.7e-05 mPa·s
4328.6 kPa
  mass density: 88.031 ± 0.45 kg/m3
  viscosity: 0.01226 ± 0.00013 mPa·s
4329.5 kPa
  mass density: 88.072 ± 0.45 kg/m3
  viscosity: 0.01226 ± 0.00013 mPa·s
4330.1 kPa
  mass density: 88.099 ± 0.45 kg/m3
  viscosity: 0.01227 ± 0.00013 mPa·s
4330.4 kPa
  mass density: 88.116 ± 0.45 kg/m3
  viscosity: 0.01226 ± 0.00013 mPa·s
4331.5 kPa
  mass density: 88.167 ± 0.45 kg/m3
  viscosity: 0.01226 ± 0.00013 mPa·s
4514.6 kPa
  mass density: 97.86 ± 0.67 kg/m3
  viscosity: 0.01277 ± 0.00019 mPa·s
4516.2 kPa
  mass density: 97.954 ± 0.67 kg/m3
  viscosity: 0.01278 ± 0.00019 mPa·s
4517.4 kPa
  mass density: 98.024 ± 0.67 kg/m3
  viscosity: 0.01279 ± 0.00019 mPa·s
4518.3 kPa
  mass density: 98.079 ± 0.67 kg/m3
  viscosity: 0.01279 ± 0.00019 mPa·s
4519.2 kPa
  mass density: 98.129 ± 0.67 kg/m3
  viscosity: 0.01279 ± 0.00019 mPa·s
4557.7 kPa
  mass density: 100.499 ± 0.33 kg/m3
  viscosity: 0.01302 ± 8.1e-05 mPa·s
4558.1 kPa
  mass density: 100.521 ± 0.33 kg/m3
  viscosity: 0.01302 ± 8.1e-05 mPa·s
4736.3 kPa
  mass density: 113.82 ± 1.2 kg/m3
  viscosity: 0.01371 ± 0.00037 mPa·s
4736.7 kPa
  mass density: 113.852 ± 1.2 kg/m3
  viscosity: 0.01371 ± 0.00037 mPa·s
4939.2 kPa
  mass density: 140.104 ± 2.4 kg/m3
  viscosity: 0.01552 ± 0.00081 mPa·s
4939.3 kPa
  mass density: 140.112 ± 2.4 kg/m3
  viscosity: 0.01552 ± 0.00081 mPa·s
5008.9 kPa
  mass density: 160.457 ± 0.35 kg/m3 and 160.473 ± 0.35 kg/m3
  viscosity: 0.01729 ± 0.0001 mPa·s
5019.4 kPa
  mass density: 165.641 ± 8.3 kg/m3 and 165.625 ± 8.3 kg/m3
  viscosity: 0.01766 ± 0.0034 mPa·s
5019.5 kPa
  mass density: 165.654 ± 8.3 kg/m3
  viscosity: 0.01767 ± 0.0034 mPa·s
5042.9 kPa
  mass density: 182.964 ± 15 kg/m3
  viscosity: 0.01932 ± 0.0068 mPa·s
5043 kPa
  mass density: 183.065 ± 15 kg/m3 and 183.021 ± 15 kg/m3
  viscosity: 0.01933 ± 0.0068 mPa·s and 0.01932 ± 0.0068 mPa·s
5050.1 kPa
  mass density: 191.037 ± 0.42 kg/m3
  viscosity: 0.02022 ± 0.00012 mPa·s
5050.2 kPa
  mass density: 191.169 ± 0.42 kg/m3
  viscosity: 0.02023 ± 0.00012 mPa·s
5051 kPa
  mass density: 192.154 ± 15 kg/m3 and 192.131 ± 15 kg/m3
  viscosity: 0.02026 ± 0.0067 mPa·s
5051.1 kPa
  mass density: 192.228 ± 15 kg/m3 and 192.185 ± 15 kg/m3
  viscosity: 0.02028 ± 0.0067 mPa·s
5058.7 kPa
  mass density: 202.521 ± 14 kg/m3 and 202.456 ± 14 kg/m3
  viscosity: 0.02133 ± 0.0066 mPa·s and 0.02132 ± 0.0066 mPa·s
5058.8 kPa
  mass density: 202.654 ± 14 kg/m3 and 202.599 ± 14 kg/m3 and 202.583 ± 14 kg/m3
  viscosity: 0.02137 ± 0.0066 mPa·s and 0.02136 ± 0.0066 mPa·s and 0.02133 ± 0.0066 mPa·s
5060.1 kPa
  mass density: 204.501 ± 0.44 kg/m3
  viscosity: 0.02168 ± 0.00013 mPa·s
5060.2 kPa
  mass density: 204.534 ± 0.45 kg/m3 and 204.598 ± 0.45 kg/m3
  viscosity: 0.02168 ± 0.00013 mPa·s
5060.3 kPa
  mass density: 204.743 ± 14 kg/m3 and 204.709 ± 14 kg/m3
  viscosity: 0.02159 ± 0.0066 mPa·s and 0.02158 ± 0.0066 mPa·s
5060.4 kPa
  mass density: 204.805 ± 14 kg/m3
  viscosity: 0.02159 ± 0.0066 mPa·s
5062 kPa
  mass density: 207.173 ± 0.45 kg/m3
  viscosity: 0.02199 ± 0.00013 mPa·s
5062.1 kPa
  mass density: 207.31 ± 0.45 kg/m3
  viscosity: 0.02199 ± 0.00013 mPa·s
5062.2 kPa
  mass density: 207.441 ± 0.45 kg/m3
  viscosity: 0.022 ± 0.00013 mPa·s
5064.1 kPa
  mass density: 209.963 ± 14 kg/m3 and 209.982 ± 14 kg/m3 and 209.961 ± 14 kg/m3
  viscosity: 0.02215 ± 0.0066 mPa·s and 0.02216 ± 0.0066 mPa·s
5064.2 kPa
  mass density: 210.139 ± 14 kg/m3 and 210.11 ± 14 kg/m3
  viscosity: 0.02219 ± 0.0066 mPa·s
5065.4 kPa
  mass density: 211.657 ± 0.46 kg/m3 and 211.736 ± 0.46 kg/m3
  viscosity: 0.02255 ± 0.00014 mPa·s
5065.5 kPa
  mass density: 211.805 ± 0.46 kg/m3
  viscosity: 0.02255 ± 0.00014 mPa·s
5105 kPa
  mass density: 242.924 ± 8.5 kg/m3 and 242.96 ± 8.5 kg/m3
  viscosity: 0.02579 ± 0.0043 mPa·s
5105.1 kPa
  mass density: 243 ± 8.5 kg/m3
  viscosity: 0.02579 ± 0.0043 mPa·s
5105.2 kPa
  mass density: 243.012 ± 8.5 kg/m3
  viscosity: 0.0258 ± 0.0043 mPa·s
5160.6 kPa
  mass density: 259.321 ± 1.9 kg/m3
  viscosity: 0.02781 ± 0.0013 mPa·s
5160.9 kPa
  mass density: 259.389 ± 1.9 kg/m3
  viscosity: 0.02781 ± 0.0013 mPa·s
5161 kPa
  mass density: 259.401 ± 1.9 kg/m3 and 259.396 ± 1.9 kg/m3
  viscosity: 0.02781 ± 0.0013 mPa·s and 0.0278 ± 0.0013 mPa·s
5187.1 kPa
  mass density: 264.206 ± 0.57 kg/m3
  viscosity: 0.02852 ± 0.00017 mPa·s
5187.4 kPa
  mass density: 264.252 ± 0.57 kg/m3
  viscosity: 0.02852 ± 0.00017 mPa·s
5187.6 kPa
  mass density: 264.291 ± 0.57 kg/m3
  viscosity: 0.02852 ± 0.00017 mPa·s
5348.1 kPa
  mass density: 282.102 ± 0.81 kg/m3
